Source: PubChem BioAssay AID1963427 (Molecular Pharmacology Branch, DTP, NCI, 2024)

Test system: 317291-083-R-J1-PDC complex spheroid growth
Test: Anticancer human tumor 317291-083-R-J1-PDC patient-derived soft tissue sarcoma cell line growth inhibition [Asc]
Settings: for IC50: curve of first compound; for viability, T/C: stronger effect = lower value
In short: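 Concentration series start at each agent's clinical Cmax, or at 10 microM when none is established, and drop in half-log steps; agents are applied alone or together to complex spheroids built with HUVEC and hMSC.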

[1] = second compound 0.00316 µM, first compound 0.0316 µM
[2] = second compound 0.00316 µM, first compound 0.1 µM
[3] = second compound 0.00316 µM, first compound 0.316 µM
[4] = second compound 0.00316 µM, first compound 1 µM
[5] = second compound 0.00316 µM, first compound 3.16 µM
[6] = second compound 0.00316 µM, first compound 10 µM
[7] = second compound 0.01 µM, first compound 0.0316 µM
[8] = second compound 0.01 µM, first compound 0.1 µM
[9] = second compound 0.01 µM, first compound 0.316 µM
[10] = second compound 0.01 µM, first compound 1 µM
[11] = second compound 0.01 µM, first compound 3.16 µM
[12] = second compound 0.01 µM, first compound 10 µM
[13] = second compound 0.0316 µM, first compound 0.0316 µM
[14] = second compound 0.0316 µM, first compound 0.1 µM
[15] = second compound 0.0316 µM, first compound 0.316 µM
[16] = second compound 0.0316 µM, first compound 1 µM
[17] = second compound 0.0316 µM, first compound 3.16 µM
[18] = second compound 0.0316 µM, first compound 10 µM
[19] = second compound 0.1 µM, first compound 0.0316 µM
[20] = second compound 0.1 µM, first compound 0.1 µM
[21] = second compound 0.1 µM, first compound 0.316 µM
[22] = second compound 0.1 µM, first compound 1 µM
[23] = second compound 0.1 µM, first compound 3.16 µM
[24] = second compound 0.1 µM, first compound 10 µM
[25] = second compound 0.316 µM, first compound 0.0316 µM
[26] = second compound 0.316 µM, first compound 0.1 µM
[27] = second compound 0.316 µM, first compound 0.316 µM
[28] = second compound 0.316 µM, first compound 1 µM
[29] = second compound 0.316 µM, first compound 3.16 µM
[30] = second compound 0.316 µM, first compound 10 µM
[31] = second compound 1 µM, first compound 0.0316 µM
[32] = second compound 1 µM, first compound 0.1 µM
[33] = second compound 1 µM, first compound 0.316 µM
[34] = second compound 1 µM, first compound 1 µM
[35] = second compound 1 µM, first compound 3.16 µM
[36] = second compound 1 µM, first compound 10 µM
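Further: compound exposure lasted seven days after spheroids formed for three days.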
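Wherever viability, T/C is given: 100% = DMSO vehicle control wells.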

**Q.** Which IC50 (second compound 0.00316 µM) does the source give for `C#Cc1c(F)ccc2cc(O)cc(-c3ncc4c(N5CC6CCC(C5)N6)nc(OCC56CCCN5CC(F)C6)nc4c3F)c12` (centres undefined) + CNC(C)C(=O)NC1CN(S(=O)(=O)c2cccc(S(=O)(=O)N3CCC4CCC(C(=O)NC(c5ccccc5)c5ccccc5)N4C(=O)C(NC(=O)C(C)NC)C3)c2)CCC2CCC(C(=O)NC(c3ccccc3)c3ccccc3)N2C1=O here?
**A.** 6740 nM

**Q.** What about the IC50 (second compound 0.01 µM) of the same molecule?
**A.** 8010 nM

**Q.** What about the IC50 (second compound 0.0316 µM) of the same molecule?
**A.** 4120 nM

**Q.** And the IC50 (second compound 0.1 µM)?
**A.** 3610 nM

**Q.** What about the IC50 (second compound 0.316 µM) of the same molecule?
**A.** < 31.6 nM

**Q.** What about the IC50 (second compound 1 µM) of the same molecule?
**A.** < 31.6 nM

**Q.** And the viability, T/C [1]?
**A.** 76.3%

**Q.** What about the viability, T/C [2] of the same molecule?
**A.** 75.7%

**Q.** What about the viability, T/C [3] of the same molecule?
**A.** 72.3%

**Q.** And the viability, T/C [4]?
**A.** 84.3%

**Q.** What about the viability, T/C [5] of the same molecule?
**A.** 87%

**Q.** And the viability, T/C [6]?
**A.** 34.8%

**Q.** And the viability, T/C [7]?
**A.** 84.2%

**Q.** What about the viability, T/C [8] of the same molecule?
**A.** 71.6%

**Q.** And the viability, T/C [9]?
**A.** 57.8%

**Q.** What about the viability, T/C [10] of the same molecule?
**A.** 81.4%

**Q.** What about the viability, T/C [11] of the same molecule?
**A.** 76%

**Q.** What about the viability, T/C [12] of the same molecule?
**A.** 44.3%

**Q.** And the viability, T/C [13]?
**A.** 67.5%

**Q.** What about the viability, T/C [14] of the same molecule?
**A.** 66.6%

**Q.** And the viability, T/C [15]?
**A.** 59.3%

**Q.** And the viability, T/C [16]?
**A.** 63.9%

**Q.** And the viability, T/C [17]?
**A.** 58.1%

**Q.** And the viability, T/C [18]?
**A.** 23.5%

**Q.** And the viability, T/C [19]?
**A.** 54.9%

**Q.** What about the viability, T/C [20] of the same molecule?
**A.** 55%

**Q.** And the viability, T/C [21]?
**A.** 53.3%

**Q.** And the viability, T/C [22]?
**A.** 50.8%

**Q.** And the viability, T/C [23]?
**A.** 59%

**Q.** And the viability, T/C [24]?
**A.** 15.1%

**Q.** What about the viability, T/C [25] of the same molecule?
**A.** 42.9%

**Q.** And the viability, T/C [26]?
**A.** 46.2%

**Q.** What about the viability, T/C [27] of the same molecule?
**A.** 44.3%

**Q.** And the viability, T/C [28]?
**A.** 31.9%

**Q.** What about the viability, T/C [29] of the same molecule?
**A.** 43.6%

**Q.** What about the viability, T/C [30] of the same molecule?
**A.** 10.6%

**Q.** And the viability, T/C [31]?
**A.** 31.1%

**Q.** What about the viability, T/C [32] of the same molecule?
**A.** 29%

**Q.** What about the viability, T/C [33] of the same molecule?
**A.** 29.4%

**Q.** And the viability, T/C [34]?
**A.** 24.4%

**Q.** And the viability, T/C [35]?
**A.** 26.2%

**Q.** What about the viability, T/C [36] of the same molecule?
**A.** 8.59%

**Q.** What does the source list for `C=C(F)C(=O)N1CCN(c2nc(OCC3CCCN3C)nc3c2CCN(c2cccc4cccc(Cl)c24)C3)CC1CC#N` (centres undefined) + CNC(C)C(=O)NC1CN(S(=O)(=O)c2cccc(S(=O)(=O)N3CCC4CCC(C(=O)NC(c5ccccc5)c5ccccc5)N4C(=O)C(NC(=O)C(C)NC)C3)c2)CCC2CCC(C(=O)NC(c3ccccc3)c3ccccc3)N2C1=O?
**A.** IC50 (second compound 0.00316 µM): 948 nM; IC50 (second compound 0.01 µM): 1030 nM; IC50 (second compound 0.0316 µM): 559 nM; IC50 (second compound 0.1 µM): 71 nM; IC50 (second compound 0.316 µM): < 31.6 nM; IC50 (second compound 1 µM): < 31.6 nM; viability, T/C [1]: 90.9%; viability, T/C [2]: 69.3%; viability, T/C [3]: 67%; viability, T/C [4]: 54.3%; viability, T/C [5]: 25%; viability, T/C [6]: 0.13%; viability, T/C [7]: 66.7%; viability, T/C [8]: 61.8%; viability, T/C [9]: 68.5%; viability, T/C [10]: 50.4%; viability, T/C [11]: 9.6%; viability, T/C [12]: 0.1%; viability, T/C [13]: 62%; viability, T/C [14]: 54.2%; viability, T/C [15]: 46.8%; viability, T/C [16]: 46.6%; viability, T/C [17]: 8.82%; viability, T/C [18]: 0.1%; viability, T/C [19]: 59.1%; viability, T/C [20]: 39.9%; viability, T/C [21]: 38.5%; viability, T/C [22]: 38.2%; viability, T/C [23]: 11.7%; viability, T/C [24]: 0.1%; viability, T/C [25]: 38.1%; viability, T/C [26]: 29.4%; viability, T/C [27]: 35%; viability, T/C [28]: 29.3%; viability, T/C [29]: 13.1%; viability, T/C [30]: 0.44%; viability, T/C [31]: 37.9%; viability, T/C [32]: 32.2%; viability, T/C [33]: 32%; viability, T/C [34]: 19.4%; viability, T/C [35]: 9.16%; viability, T/C [36]: 0.2%
